# Measured values from patent publication US20130245355A1, “3-HETARYL-SUBSTITUTED PYRROLO[2,3 B]PYRIDINE DERIVATIVES AS PDK1 INHIBITORS” (MERCK PATENT GMBH, priority 2010, published 2013).
# What was measured:
# PDK1 [1] = target: T1, PDK1 (Homo sapiens, UniProt O15530); assay: Cellular testing of PDK1 kinase inhibitors in PC3 cells (Luminex, phospho-T308-PKB); assay type: cell-based; conditions: 30 min, serum-free
# T1 construct: endogenous in cells; host or cells: PC3 cells
# T1 sequence (O15530 1-556): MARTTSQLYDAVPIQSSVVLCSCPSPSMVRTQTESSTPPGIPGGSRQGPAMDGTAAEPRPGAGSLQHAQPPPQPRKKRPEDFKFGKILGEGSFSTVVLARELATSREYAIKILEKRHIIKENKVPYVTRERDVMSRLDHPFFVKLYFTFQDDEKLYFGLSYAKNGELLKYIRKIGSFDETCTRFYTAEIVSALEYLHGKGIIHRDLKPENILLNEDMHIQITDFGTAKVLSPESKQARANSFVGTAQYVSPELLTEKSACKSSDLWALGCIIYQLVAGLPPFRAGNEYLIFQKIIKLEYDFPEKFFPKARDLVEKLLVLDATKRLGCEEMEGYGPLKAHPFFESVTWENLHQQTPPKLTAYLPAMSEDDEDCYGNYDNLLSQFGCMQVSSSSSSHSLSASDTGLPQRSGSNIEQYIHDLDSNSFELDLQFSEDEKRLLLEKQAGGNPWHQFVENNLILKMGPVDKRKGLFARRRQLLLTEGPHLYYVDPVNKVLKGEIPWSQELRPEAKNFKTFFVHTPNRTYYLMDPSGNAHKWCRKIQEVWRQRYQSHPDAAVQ
# Experimental: Method for the Cellular Testing of PDK1 Kinase Inhibitors in PC3 Cells.
# The cellular assay for the determination of the PDK1 kinase activity is carried out as a Luminex assay in the 96-well format. PC3 cells are sown at 20,000 cells per well in 100 μl of medium (45% of […]/45% of Ham's F12/10% of FCS) and incubated on the following day for 30 min with a serial dilution of the test substance (7 concentrations) under serum-free conditions. The cells are subsequently lysed using 90 μl of lysis buffer (20 mM tris/HCl pH 8.0, 150 mM NaCl, 1% of NP40, 10% of glycerol, 1% of phosphatase inhibitor I, 1% of phosphatase inhibitor II, 0.1% of protease inhibitor cocktail III, 0.01% of benzonase) per well, and the lysates are separated off from insoluble cell constituents by means of centrifugation through a 96-well filter plate (0.65 μm). The lysates are incubated overnight at 4° C. with shaking with Luminex beads to which an anti-total PKB antibody is coupled. The detection is carried out on the following day by addition of a phospho-T308-PKB antibody and a species-specific […] secondary antibody. The detection of phospho T308-PKB is carried out by measurement in a Luminex100 instrument by determination of 100 events per cavity in a measurement time of 60 sec. As pharmacological blank, the signals obtained from cells which have been treated with 10 μM staurosporin are subtracted from all other batches. The control value used for maximum phosphorylation of PKB on T308 are the signals from cells which have only been treated with the solvent (0.3% of DMSO). The values of the batches treated with test substance are calculated therefrom as percentage of control, and IC50 values are determined by means of RS 1.
# PDK1 [2] = target: T2, PDK1 (Homo sapiens, UniProt O15530); assay: Test for the inhibition of PDK1 (flashplate, 33P-ATP); conditions: His6-PDK1 (1-50) 3.4 nM, 4 μM ATP, 30° C., 60 min; read-out: IC50 [PDK1] biochemical
# T2 construct: His6 (N)
# T2 sequence (O15530 51-556 limits assumed): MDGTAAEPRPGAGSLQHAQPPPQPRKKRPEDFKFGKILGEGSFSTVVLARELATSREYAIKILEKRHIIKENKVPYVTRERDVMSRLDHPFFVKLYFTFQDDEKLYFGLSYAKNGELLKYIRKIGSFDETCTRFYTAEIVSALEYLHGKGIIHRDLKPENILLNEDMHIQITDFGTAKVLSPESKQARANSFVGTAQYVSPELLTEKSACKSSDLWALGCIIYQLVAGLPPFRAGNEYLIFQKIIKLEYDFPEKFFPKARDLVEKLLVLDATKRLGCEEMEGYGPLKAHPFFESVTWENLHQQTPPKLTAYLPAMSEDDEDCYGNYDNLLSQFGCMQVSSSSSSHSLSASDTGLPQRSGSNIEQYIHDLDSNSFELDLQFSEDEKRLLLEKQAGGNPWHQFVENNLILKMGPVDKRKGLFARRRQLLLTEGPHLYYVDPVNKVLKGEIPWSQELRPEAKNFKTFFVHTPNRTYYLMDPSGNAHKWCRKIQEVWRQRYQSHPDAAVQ
# Experimental: The experimental batches are carried out in a flashplate system with 384 wells/microtitration plate.
# In each case, the PDK1 sample His6-PDK1 (1-50) (3.4 nM), the PDK1 substrate biotin-bA-bA-[…] (400 nM), 4 μM ATP (with 0.2μ Ci of ^33P-ATP/well) and the test substance in 50 μl of conventional experimental solution per well are incubated at 30° C. for 60 min. The test substances are employed in corresponding concentrations (if desired in a dilution series). The control is carried out without test substance. The reaction is stopped using standard methods and washed. The activity of the kinase is measured via the incorporated radioactivity in top count. In order to determine the non-specific kinase reaction (blank value), the experimental batches are carried out in the presence of 100 nM staurosporin.
# The radioactivity (decompositions per minute) of the blank value (no use of test substance in the presence of staurosporin) is subtracted from all other radioactivity values. The controls (kinase activity without test substance) are set equal to 100 percent and all other radioactivity values (after subtracting the blank value) are expressed set in relation thereto (for example in % of the control).
# IC50 values (50% inhibition) are determined with the aid of statistics programmes, such as, for example, RS1.
Compound,IC50 (PDK1 [1]) [nM],IC50 (PDK1 [2]) [nM]
Cn1cc(-c2cnc3[nH]cc(-c4csc(Cc5cccc(F)c5)n4)c3c2)cn1 [A7],1000 to 10000,–
"Cn1cc(-c2cnc3[nH]cc(-c4nnc([C@H](O)c5ccccc5Cl)o4)c3c2)cn1 (single isomer, unassigned) [A131]",–,0.5 to 1000
Cn1cc(-c2cnc3[nH]cc(-c4nnc(C(O)c5cccc(F)c5F)o4)c3c2)cn1 (centres unmarked) [A46],0.5 to 1000,0.5 to 1000
COC(c1ccccc1)c1nnc(-c2c[nH]c3ncc(-c4cnn(C)c4)cc23)o1 (centres unmarked) [A81],1000 to 10000,0.5 to 1000
Cn1cc(-c2cnc3[nH]cc(-c4cc(C(O)c5ccccc5)on4)c3c2)cn1 (centres unmarked) [A75],0.5 to 1000,0.5 to 1000
Cn1cc(-c2cnc3[nH]cc(-c4nc(C(C)(O)c5cccc(Cl)c5)no4)c3c2)cn1 (centres unmarked) [A80],0.5 to 1000,0.5 to 1000
Cn1cc(-c2cnc3[nH]cc(-c4nnc(C5(c6cccnc6)CCCC5)o4)c3c2)cn1 [A110],1000 to 10000,0.5 to 1000
Cn1cc(-c2cnc3[nH]cc(-c4nc(C(C)(O)c5ccccc5)no4)c3c2)cn1 (centres unmarked) [A67],0.5 to 1000,1000 to 10000
"Cc1cc(C2(c3nnc(-c4c[nH]c5ncc(-c6cnn(C)c6)cc45)o3)CC2)ccn1 [A85, 5-(1-methyl-1H-pyrazol-4-yl)-3-{5-[1-(2-methylpyridin-4-yl)-cyclopropyl]-1,3,4-oxadiazol-2-yl}-1H-pyrrolo[2,3-b]pyridine]",1000 to 10000,1000 to 10000
"Cn1cc(-c2cnc3[nH]cc(-c4cc(C(C)(O)c5ccccc5)on4)c3c2)cn1 (centres unmarked) [A1, 1-{3-[5-(1-methyl-1H-pyrazol-4-yl)-1H-pyrrolo[2,3-b]pyridin-3-yl]isoxazol-5-yl}-1-phenylethanol]",0.5 to 1000,0.5 to 1000
"Cn1cc(-c2cnc3[nH]cc(-c4csc(Cc5ccccc5)n4)c3c2)cn1 [A2, 3-(2-benzyl-thiazol-4-yl)-5-(1-methyl-1H-pyrazol-4-yl)-1H-pyrrolo[2,3-b]pyridine]",1000 to 10000,–
"Cn1cc(-c2cnc3[nH]cc(-c4noc(Cc5cccc(F)c5)n4)c3c2)cn1 [A8, 3-[5-(3-fluorobenzyl)-1,2,4-oxadiazol-3-yl]-5-(1-methyl-1H-pyrazol-4-yl)-1H-pyrrolo[2,3-b]pyridine]",–,1000 to 10000
"Cn1cc(-c2cnc3[nH]cc(-c4cc([C@](C)(O)c5ccccc5F)on4)c3c2)cn1 (single isomer, unassigned) [A56]",–,0.5 to 1000
Cn1cc(-c2cnc3[nH]cc(-c4cc(C(O)c5ccccc5)nn4CCO)c3c2)cn1 (centres unmarked) [A106],–,1000 to 10000
CCC(N)(c1ccccc1)c1nnc(-c2c[nH]c3ncc(-c4cnn(C)c4)cc23)o1 (centres unmarked) [A114],–,1000 to 10000
Cn1cc(-c2cnc3[nH]cc(-c4noc(Cc5ccccc5)n4)c3c2)cn1 [A26],–,1000 to 10000
Cn1cc(-c2cnc3[nH]cc(-c4nc(C5(c6ccccc6Cl)CC5)no4)c3c2)cn1 [A119],1000 to 10000,–
Cn1cc(-c2cnc3[nH]cc(-c4noc(C(=O)c5ccccc5)n4)c3c2)cn1 [A27],1000 to 10000,–
